Experimental data taken from patent US20070037823A1, “Substituted piperidine and piperazine derivatives as melanocortin-4 receptor modulators” (priority 2003, published 2007).

Key:
hMC4-R [1] = target: T1, hMC4-R (Homo sapiens, UniProt P32245); assay: Membrane binding assay, fluorescence labeled NDP-alpha-MSH competition (fluorescence polarization); conditions: HEK293 cell membrane preparations
T1 construct: expressed in transfected cells; host or cells: HEK293 cells
Protocol: A membrane binding assay is used to identify competitive inhibitors of fluorescence labeled NDP-alpha-MSH binding to HEK293 cell membrane preparations expressing human melanocortin receptors.
The test compound or unlabeled NDP-alpha-MSH is dispensed at varying concentrations to a 384 well microtiter plate. Fluorescence labeled NDP-alpha-MSH is dispensed at a single concentration, followed by addition of membrane preparations. The plate is incubated for 5 h at room temperature.
The degree of fluorescence polarization is determined with a fluorescence polarization microplate reader.

hMC4-R [2] = target: T1, hMC4-R; assay: Functional cellular cAMP assay in HEK293 cells (fluorescence polarization); format: cell-based; conditions: for % activation functional assay: cAMP compared to stimulation with NDP-alpha-MSH; for EC50: HEK293 cells, cAMP production
Protocol: A functional cellular assay, based on competition between unlabeled cAMP and a fixed quantity of fluorescence labeled cAMP for a limited number of binding sites on a cAMP specific antibody, is used to discriminate melanocortin receptor agonists from antagonists by fluorescence polarization.
HEK293 cells expressing one of the human melanocortin receptors are transferred to 384 well microtiter plates, an appropriate amount of cAMP antibody is added, followed by the addition of different concentrations of the test compound to effect cAMP production. Cells are lysed and a fluorescence labeled cAMP conjugate is dispensed. The plate is read on a fluorescence polarization microplate reader and the amount of cAMP produced as a response to a test compound is compared to the production of CAMP resulting from stimulation with NDP-alpha-MSH. […]

male Wistar rats = assay: Spontaneous feeding paradigm (food intake); format: in vivo, rat; conditions: 10 mg/kg p.o.; for increase in cumulative food intake: compared to vehicle control
Protocol: Food intake in rats is measured after i.p. or p.o. administration of the test compound (see e.g. Chen, A. S. et al. Transgenic Res April 2000; 9(2):145-54).
3-4 Hours following the onset of the light-phase, individually housed, male Wistar rats (200-300 g) receive an ip injection or po application of test compound or vehicle in an administration volume of 2 ml/kg. Following the administration of substances (1-30 mg/kg), a pre-weighed amount of normal laboratory chow is placed into the food hopper. Food remaining is measured by hand at 1-2 hour intervals for up to 8 hours. Differences in food intake between test-compound and vehicle-treated rats are evaluated.

[3] = 2 hours following administration
[4] = 4 hours following administration

T1 sequence (P32245 whole entry): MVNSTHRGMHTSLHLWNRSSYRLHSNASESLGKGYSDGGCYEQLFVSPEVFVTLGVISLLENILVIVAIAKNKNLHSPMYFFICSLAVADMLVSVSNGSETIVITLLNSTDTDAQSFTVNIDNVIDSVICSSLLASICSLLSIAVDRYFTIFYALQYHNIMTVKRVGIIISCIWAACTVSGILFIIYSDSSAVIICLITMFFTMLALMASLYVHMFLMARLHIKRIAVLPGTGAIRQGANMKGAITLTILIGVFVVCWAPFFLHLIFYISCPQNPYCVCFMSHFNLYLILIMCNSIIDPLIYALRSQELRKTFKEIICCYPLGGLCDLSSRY

Compound | IC50 (hMC4-R [1]) | % activation functional assay (hMC4-R [2]) | activity in the spontaneous feeding paradigm (increase in food intake) (male Wistar rats) | increase in cumulative food intake (male Wistar rats; [3]) | increase in cumulative food intake (male Wistar rats; [4]) | increase in cumulative food intake (male Wistar rats; 6 hours following administration) | EC50 (hMC4-R [2])
CC(C)(C)NC(=O)C1(C2CCCCC2)CCN(C[C@@H](Cc2ccc(Cl)cc2)NC(=O)[C@@H]2Cc3ccccc3CN2)CC1.Cl [Example 3] | 0.42 µM | no activation |  |  |  |  | 
CC(C)(C)NC(=O)C1(C2CCCCC2)CCN(C[C@H](Cc2ccc(Cl)cc2)NC(=O)[C@H]2Cc3ccccc3CN2)CC1.Cl [Example 1] | 0.7 µM | no activation | active | 2700% | 700% | 175% | 
CC(C)(C)NC(=O)C1(C2CCCCC2)CCN(CC[C@H](Cc2ccc(Cl)cc2)NC(=O)[C@H]2Cc3ccccc3CN2)CC1.Cl [Example 6] | 1 µM | no activation |  |  |  |  | 
CC(C)(C)NC(=O)C1(C2CCCCC2)CCN(CC[C@@H](Cc2ccc(Cl)cc2)NC(=O)[C@H]2Cc3ccccc3CN2)CC1.Cl [Example 5] | 2.5 µM | 52% |  |  |  |  | 8 µM
CC(C)(C)NC(=O)C1(C2CCCCC2)CCN(C[C@H](Cc2ccc(Cl)cc2)NC(=O)c2cc(=O)c3ccccc3o2)CC1 [Example 28] | 2.3 µM | no activation |  |  |  |  | 
CC(C)(C)NC(=O)C1(C2CCCCC2)CCN(C[C@@H](Cc2ccc(Cl)cc2)NC(=O)[C@H]2Cc3ccccc3CN2)CC1.Cl [Example 2] | 0.72 µM | 80% |  |  |  |  | 3.1 µM
CC(C)(C)NC(=O)C1(C2CCCCC2)CCN(CC[C@@H](Cc2ccc(Cl)cc2)NC(=O)c2cc(=O)c3ccccc3o2)CC1 [Example 30] | 2.1 µM | no activation |  |  |  |  | 
CC(C)(C)NC(=O)C1(C2CCCCC2)CCN(CC[C@H](Cc2ccc(Cl)cc2)NC(=O)c2cc(=O)c3ccccc3o2)CC1 [Example 31] | 0.061 µM | no activation | active | 1100% | 380% |  | 
CC(C)(C)NC(=O)C1(C2CCCCC2)CCN(C[C@@H](Cc2ccc(Cl)cc2)NC(=O)c2cc(=O)c3ccccc3o2)CC1 [Example 29] | 2.6 µM | no activation |  |  |  |  | 
